In patent US10183032B2, “Methods for treating bacterial infection” (Ball State Innovation Corporation, priority 2012, dated 2019):

Assays:
Staphylococcus aureus [1] = assay: Intracellular bacteria per host cell (HUVEC), fluorescence microscopy; type: cell-based; settings: 10 μmol/L, 18-20 h, 100 cells counted
RAW 264.7 cells = assay: Cytotoxicity by propidium iodide, RAW 264.7 cells; type: cell-based; settings: RAW 264.7 pretreated 18-20 h
Staphylococcus aureus [2] = assay: Assessment of bactericidal activity (DMEM, 10% fetal bovine serum); type: cell-based; settings: 3.2 × 10^6 CFU S. aureus, 1 h in DMEM with 10% fetal bovine serum; head prints 20 mM
Staphylococcus aureus [3] = assay: Staphylococcus aureus host cell invasion assay in HUVEC, flow cytometry; type: cell-based; settings: HUVEC; for Internalized bacteria (% control ± SEM), Structural analog: 10 μM in PEG, 18-20 hours prior to infection, fluorescently labeled S. aureus 1 hour; for activity at 10 µM: Staphylococcus aureus, 1 h, read-out: Internalized bacteria (% control ± SEM), Structural analog; for inhibition of invasion compared with ML 141 (Table 1): 10 μM, flow cytometry
Protocol: In one embodiment, human umbilical vein endothelial cells (HUVEC, Life Technologies) are cultured in M200 medium supplemented with LSGS. RAW 264.7 cells (American Type Culture Collection, ATCC, Manassas, Va.) are cultured in RPMI supplemented with 10% FBS and L-glutamine. All cell types are maintained at 5% CO2, 37° C., in 75 cm^2 vented cap flasks (Thermo-Fisher). For assays, cultured cells are plated at 1×10^5 cells/ml in 35 mm culture dishes coated with Attachment Factor. The next day, cells are pretreated in culture medium containing the vehicle control or ML 141. For compound delivery, ML 141 first is suspended into DMSO or into PEG at a concentration of 5 mM. The 5 mM solution is diluted to 1 mM in the solvent and then diluted to the final concentration for each experiment in either serum-containing or serum-free medium. For vehicle control treatment, the same volume of PEG or DMSO as that of ML 141 is added to medium. The following day, the invasion assay is performed. For the shorter duration experiments, compound is added on the same day as the invasion assay, 1 hour prior to bacteria.
In another embodiment, HUVEC (Millipore, Billerica, Mass.) are cultured in EndoGRO LS Complete Media (Millipore) and are maintained at 5% CO2, 37° C., in 75 cm^2 vented cap flasks (Thermo-Fisher). For the invasion assay, cultured cells are plated at 1×10^4 cells/ml in 96-well culture dishes coated with Attachment Factor. The next day, cells are pretreated in culture medium containing the vehicle control, ML 141, or ML 141 structural analog. For compound delivery, ML 141 and structural analogs first are suspended into PEG at a concentration of 5 mM. The 5 mM solution is diluted to 1 mM in the solvent and then is diluted to the final concentration for each experiment in serum containing medium. For vehicle control treatment, the same volume of PEG as that of ML 141 or of ML 141 structural analog is added to the medium. The following day, the invasion assay is performed. Bacteria are added directly to medium containing vehicle control, ML 141, or the ML 141 structural analog.
Two days prior to the assay, TSB is inoculated with S. aureus (American Type Culture Collection #29213) and incubated overnight (225 rpm, 37° C.). Bacteria are subcultured the next day into fresh TSB. On the day of the assay, bacteria are pelleted (10000×g, 37° C., 3 min), are washed in saline, are pelleted as above, are resuspended in saline, then fluorescently labeled by incubation with rabbit anti-mouse IgG Alexa Fluor 488 (final concentration 8 μg/ml, RT, 20 min). Protein A, a S. aureus cell surface protein, avidly binds IgG thereby labeling the bacteria. Labeled bacteria are washed twice as above and are resuspended to 3×10^8 CFU/ml in saline. Host cells are incubated with the bacteria for 1 hour (1.2×10^8 CFU/ml for same-day recovery, 5×10^6 for recovery after 48 hours, 1.4×10^7 CFU/ml; 5% CO2, 37° C.). Following infection, extracellular bacteria are removed by extensive washes with PBS and incubation of the host cells with antimicrobials that have limited mammalian membrane permeability (lysostaphin, 20 μg/ml and gentamicin, 50 μg/ml; 45 min for same-day recovery studies, 48 hours for 2-day recovery studies; 5% CO2, 37° C.). To detect the level of infection using flow cytometry, cells that have been infected with fluorescently-labeled bacteria are washed extensively with PBS, lifted from 96-well plate by incubation with trypsin, washed extensively in FACS buffer (2% BSA/0.1% sodium azide/PBS), fixed (FACS buffer containing 0.74% formaldehyde), and are counted using an Accuri flow cytometer (BD, Franklin Lakes, N.J.). They are also lifted from culture dishes using cell scrapers, pelleted, fixed (1% BSA/0.74% formaldehyde/PBS), and are counted using an Accuri flow cytometer. For enumeration of the infecting bacteria, intracellular bacteria are released from host cells using 1% saponin/PBS (20 min, 5% CO2, 37° C.) and serial dilutions are plated on TSA (16 hours, 37° C.). […]

CDC42 = CDC42 (Homo sapiens, UniProt P60953); assay: BODIPY-FL-GTP binding to CDC42
Sequence of CDC42 (P60953 whole entry): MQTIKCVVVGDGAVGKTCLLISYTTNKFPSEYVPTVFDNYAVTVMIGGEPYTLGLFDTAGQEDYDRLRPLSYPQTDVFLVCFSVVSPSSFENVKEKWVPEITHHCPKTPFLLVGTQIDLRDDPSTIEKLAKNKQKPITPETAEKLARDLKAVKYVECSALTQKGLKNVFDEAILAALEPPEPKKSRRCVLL

Staphylococcus aureus [4] = assay: Assessment of bactericidal activity (HUVEC media); type: cell-based; settings: for CFU (×10^8 ± SEM), Compound (10 μM): 1.2 × 10^8 CFU S. aureus, 1 h in HUVEC media
Protocol: FIG. 6B illustrates that neither cytotoxicity nor bactericidal activity is detected. Cultures of Staphylococcus aureus that had been incubated with the vehicle control DMSO or with ML 141 (1 hour, 37° C., 225 rpm) were serially diluted, plated onto blood agar, and incubated (18 hours, 37° C.). Colonies were enumerated and colony forming units (CFU)/ml determined. CFU/ml were not different amongst the groups (p>0.05 by t-test; n=2/treatment). […]

[5] = tested on: Human umbilical vein endothelial cells; assay: Cytotoxicity by propidium iodide exclusion, HUVEC; type: cell-based; settings: for Mean fluorescence intensity (×10^4 ± SEM), Compound (10 μM): HUVEC pretreated 18-20 h; for Cytotoxicity (in words): 10 μM, 18-20 h, Tables 4 and 5

## COc1ccc(CCC(=NNc2ccc(S(N)(=O)=O)cc2)c2ccccc2)cc1 [RSM 27]
Staphylococcus aureus [1]
  Intracellular bacteria/cell (±SEM), Structural analog: 4.4 ± 0.5 bacteria/cell
RAW 264.7 cells
  Mean fluorescence intensity (×10^3 ± SEM), Compound (10 μM): 1.0 ± 0.1 ×10^3
Staphylococcus aureus [2]
  CFU/mL (×10^9 ± SEM), Compound: 2.4 ± 0.6 ×10^9 CFU/mL

## COCCOc1ccc(C2CC(c3ccc(OC)cc3)=NN2c2ccc(S(N)(=O)=O)cc2)cc1 (stereo not shown) [RSM 12]
Staphylococcus aureus [3]
  Internalized bacteria (% control ± SEM), Structural analog: 57 ± 3% % control

## CC(=O)Nc1ccc(C2CC(c3ccccc3)=NN2c2ccc(S(N)(=O)=O)cc2)cc1 (stereo not shown) [RSM 29]
Staphylococcus aureus [1]
  Intracellular bacteria/cell (±SEM), Structural analog: 2.4 ± 0.4 bacteria/cell
RAW 264.7 cells
  Mean fluorescence intensity (×10^3 ± SEM), Compound (10 μM): 4.2 ± 0.3 ×10^3
Staphylococcus aureus [2]
  CFU/mL (×10^9 ± SEM), Compound: 1.4 ± 0.1 ×10^9 CFU/mL

## COc1ccc(C2=NN(c3ccc(S(N)(=O)=O)cc3)C(c3cc(OC)c(OC)c(OC)c3)C2)cc1 (stereo not shown) [RSM 14]
Staphylococcus aureus [3]
  Internalized bacteria (% control ± SEM), Structural analog: 71 ± 3% % control

## COCCOc1ccc(C2CC(c3ccccc3)=NN2c2ccc(S(N)(=O)=O)cc2)cc1 (stereo not shown) [RSM 11]
Staphylococcus aureus [3]
  Internalized bacteria (% control ± SEM), Structural analog: 61 ± 2% % control

## NS(=O)(=O)c1ccc(N2N=C(c3ccccc3)CC2c2ccc3c(c2)OCO3)cc1 (stereo not shown) [RSM 05]
CDC42
  IC50: 3.4 µM
Staphylococcus aureus [4]
  CFU (×10^8 ± SEM), Compound (10 μM): 8.0 ± 1.7 ×10^8 CFU
[5]
  Mean fluorescence intensity (×10^4 ± SEM), Compound (10 μM): 3.9 ± 0.2 ×10^4
Staphylococcus aureus [3]
  activity at 10 µM: 38 ± 3%

## COCCOc1ccc(C2=NN(c3ccc(S(N)(=O)=O)cc3)C(c3ccc(OC)cc3)C2)cc1 (stereo not shown) [RSM 17]
Staphylococcus aureus [3]
  Internalized bacteria (% control ± SEM), Structural analog: 67 ± 8% % control

## COc1ccc(C2C3Cc4ccccc4C3=NN2c2ccc(S(N)(=O)=O)cc2)cc1 (stereo not shown) [RSM 21]
CDC42
  GTP binding (IC50): only slightly higher
  IC50: 5.5 µM
Staphylococcus aureus [4]
  CFU (×10^8 ± SEM), Compound (10 μM): 15.0 ± 1.1 ×10^8 CFU
[5]
  Mean fluorescence intensity (×10^4 ± SEM), Compound (10 μM): 2.8 ± 0.09 ×10^4
Staphylococcus aureus [3]
  activity at 10 µM: 79 ± 3%

## COc1ccc(C2CC(c3ccccc3)=NN2c2ccc(S(N)(=O)=O)cc2)cc1OC (stereo not shown) [RSM 15]
CDC42
  IC50: 2.2 µM
Staphylococcus aureus [4]
  CFU (×10^8 ± SEM), Compound (10 μM): 10.1 ± 1.0 ×10^8 CFU
[5]
  Mean fluorescence intensity (×10^4 ± SEM), Compound (10 μM): 4.0 ± 0.4 ×10^4
Staphylococcus aureus [3]
  inhibition of invasion compared with ML 141 (Table 1): inhibited invasion more than ML 141
  activity at 10 µM: 45 ± 1%

## COCCOc1ccc(C2=NN(c3ccc(S(N)(=O)=O)cc3)C(c3ccc(Cl)cc3)C2)cc1 (stereo not shown) [RSM 20]
CDC42
  IC50: 46.5 µM
Staphylococcus aureus [4]
  CFU (×10^8 ± SEM), Compound (10 μM): 10.0 ± 0.2 ×10^8 CFU
[5]
  Mean fluorescence intensity (×10^4 ± SEM), Compound (10 μM): 2.1 ± 0.2 ×10^4
Staphylococcus aureus [3]
  activity at 10 µM: 61 ± 4%

## CCC(=O)Nc1cccc(C2=NN(c3ccc(S(N)(=O)=O)cc3)C(c3ccc(OC)cc3)C2)c1 (stereo not shown) [RSM 33]
Staphylococcus aureus [1]
  Intracellular bacteria/cell (±SEM), Structural analog: 5.4 ± 0.4 bacteria/cell
RAW 264.7 cells
  Mean fluorescence intensity (×10^3 ± SEM), Compound (10 μM): 2.9 ± 1.1 ×10^3
Staphylococcus aureus [2]
  CFU/mL (×10^9 ± SEM), Compound: 1.3 ± 0.04 ×10^9 CFU/mL

## COc1ccc(C2CC(c3ccc(NC(C)=O)cc3)=NN2c2ccc(S(N)(=O)=O)cc2)cc1 (stereo not shown) [RSM 31]
Staphylococcus aureus [1]
  Intracellular bacteria/cell (±SEM), Structural analog: 1.4 ± 0.4 bacteria/cell
RAW 264.7 cells
  Mean fluorescence intensity (×10^3 ± SEM), Compound (10 μM): 2.4 ± 0.3 ×10^3
Staphylococcus aureus [2]
  CFU/mL (×10^9 ± SEM), Compound: 0.9 ± 0.09 ×10^9 CFU/mL

## COc1ccc(C2(C)CC(c3ccccc3)=NN2c2ccc(S(N)(=O)=O)cc2)cc1 (stereo not shown) [RSM 26]
Staphylococcus aureus [4]
  CFU (×10^8 ± SEM), Compound (10 μM): 0.8 ± 1.1 ×10^8 CFU
Staphylococcus aureus [4]; S. aureus incubated 1 h with compound, FIG. 6B, Tables 6 and 7
  Bactericidal activity (in words): bactericidal
[5]
  Cytotoxicity (in words): cytotoxic
  Mean fluorescence intensity (×10^4 ± SEM), Compound (10 μM): 26.8 ± 2.1 ×10^4
Staphylococcus aureus [3]
  Internalized bacteria (% control ± SEM), Structural analog: 40 ± 3% % control

## CCC(=O)Nc1ccc(C2=NN(c3ccc(S(N)(=O)=O)cc3)C(c3ccc(OC)cc3)C2)cc1 (stereo not shown) [RSM 32]
Staphylococcus aureus [1]
  Intracellular bacteria/cell (±SEM), Structural analog: 5.5 ± 0.4 bacteria/cell
RAW 264.7 cells
  Mean fluorescence intensity (×10^3 ± SEM), Compound (10 μM): 2.8 ± 1.1 ×10^3
Staphylococcus aureus [2]
  CFU/mL (×10^9 ± SEM), Compound: 2.4 ± 0.3 ×10^9 CFU/mL

## COc1ccc(C2=NN(c3ccc(S(N)(=O)=O)cc3)C(c3ccc(Cl)cc3)C2)cc1 (stereo not shown) [RSM 04]
Staphylococcus aureus [4]
  CFU (×10^8 ± SEM), Compound (10 μM): 3.8 ± 0.8 ×10^8 CFU
[5]
  Cytotoxicity (in words): cytotoxic
  Mean fluorescence intensity (×10^4 ± SEM), Compound (10 μM): 4.6 ± 0.2 ×10^4
Staphylococcus aureus [3]
  Internalized bacteria (% control ± SEM), Structural analog: 11 ± 1% % control
  inhibition of invasion compared with ML 141 (Table 1): inhibited invasion more than ML 141

## COc1ccc(C2C(C)C(c3ccccc3)=NN2c2ccc(S(N)(=O)=O)cc2)cc1 (stereo not shown) [RSM 19]
CDC42
  IC50: 13.5 µM
Staphylococcus aureus [4]
  CFU (×10^8 ± SEM), Compound (10 μM): 9.4 ± 1.0 ×10^8 CFU
[5]
  Mean fluorescence intensity (×10^4 ± SEM), Compound (10 μM): 2.6 ± 0.01 ×10^4
Staphylococcus aureus [3]
  activity at 10 µM: 61 ± 2%

## COc1cc(C2CC(c3ccccc3)=NN2c2ccc(S(N)(=O)=O)cc2)cc(OC)c1OC (stereo not shown) [RSM 13]
Staphylococcus aureus [3]
  Internalized bacteria (% control ± SEM), Structural analog: 62 ± 5% % control

## COCCOc1ccc(C2=NN(c3ccc(S(N)(=O)=O)cc3)C(c3ccc(OCCOC)cc3)C2)cc1 (stereo not shown) [RSM 18]
Staphylococcus aureus [3]
  Internalized bacteria (% control ± SEM), Structural analog: 76 ± 7% % control

## CN(C)c1ccc(C2CC(c3ccccc3)=NN2c2ccc(S(N)(=O)=O)cc2)cc1 (stereo not shown) [RSM 28]
Staphylococcus aureus [1]
  Intracellular bacteria/cell (±SEM), Structural analog: 1.4 ± 0.3 bacteria/cell
RAW 264.7 cells
  Mean fluorescence intensity (×10^3 ± SEM), Compound (10 μM): 11 ± 2.0 ×10^3
Staphylococcus aureus [2]
  CFU/mL (×10^9 ± SEM), Compound: 1.8 ± 0.05 ×10^9 CFU/mL

## COc1ccc(C2=NN(c3ccc(S(N)(=O)=O)cc3)C(c3ccccc3)C2)cc1 (stereo not shown) [RSM 07]
CDC42
  GTP binding (IC50): only slightly higher
  IC50: 6.2 µM
Staphylococcus aureus [4]
  CFU (×10^8 ± SEM), Compound (10 μM): 11.5 ± 1.1 ×10^8 CFU
[5]
  Mean fluorescence intensity (×10^4 ± SEM), Compound (10 μM): 2.5 ± 0.4 ×10^4
Staphylococcus aureus [3]
  activity at 10 µM: 34 ± 2%

## COc1ccc(C2CC(c3cccc(NC(C)=O)c3)=NN2c2ccc(S(N)(=O)=O)cc2)cc1 (stereo not shown) [RSM 30]
Staphylococcus aureus [1]
  Intracellular bacteria/cell (±SEM), Structural analog: 1.7 ± 0.3 bacteria/cell
RAW 264.7 cells
  Mean fluorescence intensity (×10^3 ± SEM), Compound (10 μM): 2.4 ± 0.4 ×10^3
Staphylococcus aureus [2]
  CFU/mL (×10^9 ± SEM), Compound: 1.5 ± 0.02 ×10^9 CFU/mL
